According to ChEMBL document CHEMBL5038569, “Targeting RECQL5 Functions, by a Small Molecule, Selectively Kills Breast Cancer in Vitro and in Vivo” (J Med Chem, 2021):
Calls of active or inactive are those of the source. The calls are words filed in the database; no cut-off is given here.

What was measured:
[1] = system: T47D; assay: Inhibition of homologous recombinant repair in RECQL5 knock out human T47D cells assessed as stabilization of RAD51-RECQL5 interaction by measuring increase in RAD51 foci formation at 20 uM measured after 4 to 24 hrs by immunofluorescence microscopic analysis; assay type: functional, cell-based; settings: time 4-24 hrs
[2] = system: MCF7; assay: Cytotoxicity against human MCF7 cells expressing wild type RECQL5 assessed as inhibition of colony formation measured after 8 to 10 days by clonogenic survival assay; assay type: functional, cell-based
[3] = system: MCF7; assay: Cytotoxicity against human MCF7 cells expressing wild type RECQL5 assessed as cell growth inhibition measured after 72 hrs by MTT assay; assay type: functional; settings: dose 6-50 µM
[4] = system: T47D; assay: Inhibition of homologous recombinant repair in human T47D cells expressing wild type RECQL5 assessed as stabilization of RAD51-RECQL5 interaction by measuring increase in RAD51 foci formation at 20 uM measured after 4 to 24 hrs by immunofluorescence microscopic analysis; assay type: functional, cell-based; settings: time 4-24 hrs
[5] = system: MCF7; assay: Inhibition of homologous recombinant repair in human MCF7 cells expressing RECQL5 wildtype assessed as stabilization of RAD51-RECQL5 interaction by measuring increase in RAD51 foci formation at 20 uM measured after 4 to 24 hrs by immunofluorescence microscopic analysis; assay type: functional, cell-based; settings: time 4-24 hrs
[6] = system: MCF7; assay: Antitumor activity against human MCF7 cells expressing wild type RECQL5 xenografted in nude mouse assessed as reduction in tumor growth at 50 mg/kg, po administered as single dose via gavage measured after 30 days; assay type: functional, organism-based; settings: time 30.0 day, TDE = time-dependent effect
[7] = Selectivity ratio of IC20 for cytotoxicity against RECQL5 knock out human MCF7 cells to IC20 for cytotoxicity against human MCF7 cells expressing RECQL5-WT; assay type: functional
[8] = system: MCF7; assay: Cytotoxicity against RECQL5 knock out human MCF7 cells assessed as inhibition of colony formation measured after 8 to 10 days by clonogenic survival assay; assay type: functional, cell-based
[9] = Drug concentration in nude mouse serum at 50 mg/kg, po administered alternative days via gavage and measured upto 4 hrs by HPLC analysis; assay type: ADME, organism-based; settings: read-out: Drug uptake
[10] = Toxicity in nude mouse xenografted with human MCF7 cells assessed as body weight loss at 50 mg/kg, po administered via oral gavage for 30 days and measured every 5 days; assay type: organism-based; settings: in vivo, 720 h, time 30 day
[11] = system: MCF7; assay: Induction of apoptosis in RECQL5 knock out human MCF7 cells assessed as increase in sub-G1 cell population measured after 72 hrs by propidium iodide/RNase A staining based flow cytometric analysis; assay type: functional; settings: dose 2.5-20 µM
[12] = system: MDA-MB-231; assay: Induction of apoptosis in RECQL5 depleted human MDA-MB-231 cells assessed as cell death measured after 72 hrs by propidium iodide/RNase A staining based flow cytometric analysis; assay type: functional
[13] = system: MCF7; assay: Induction of DNA damage in human MCF7 cells expressing wild type RECQL5 assessed as double strand breaks by measuring increase in gamma-H2AX foci formation incubated for 24 hrs by immunofluorescence microscopic analysis; assay type: functional, cell-based; settings: dose 0-20 µM
[14] = system: MCF7; assay: Induction of DNA damage in human MCF7 cells expressing wild type RECQL5 assessed as double strand breaks by measuring increase in phosphorylation of ATR at S428 residue at 20 uM measured up to 24 hrs by Western blot analysis; assay type: functional, cell-based; settings: time hrs <=24
[15] = system: MCF7; assay: Induction of DNA damage in human MCF7 cells expressing wild type RECQL5 assessed as double strand breaks by measuring increase in phosphorylation of p53 at S15 residue at 20 uM measured up to 24 hrs by Western blot analysis; assay type: functional, cell-based; settings: time hrs <=24
[16] = system: MCF7; assay: Induction of DNA damage in RECQL5 knock out human MCF7 cells assessed as double strand breaks by measuring increase in phosphorylation of ATM at S1981 residue at 20 uM measured up to 24 hrs by Western blot analysis; assay type: functional, cell-based; settings: time hrs <=24
[17] = system: MCF7; assay: Induction of DNA damage in RECQL5 knock out human MCF7 cells assessed as double strand breaks by measuring increase in phosphorylation of ATR at S428 residue at 20 uM measured up to 24 hrs by Western blot analysis; assay type: functional, cell-based; settings: time hrs <=24
[18] = system: MCF7; assay: Effect on homologous recombinant repair in human MCF7 cells expressing wild type RECQL5 assessed as accumulation of RAD50 protein on chromatin at 20 uM incubated for 4 to 24 hrs by Western blot analysis; assay type: functional, cell-based; settings: time 4-24 hrs, TDE = time-dependent effect
[19] = system: MCF7; assay: Effect on homologous recombinant repair in RECQL5 knock out human MCF7 cells assessed as accumulation of MRE11 protein on chromatin at 20 uM incubated for 4 to 24 hrs by Western blot analysis; assay type: functional, cell-based; settings: time 4-24 hrs
[20] = system: MCF7; assay: Effect on homologous recombinant repair in RECQL5 knock out human MCF7 cells assessed as accumulation of NBS1 protein on chromatin at 20 uM incubated for 4 to 24 hrs by Western blot analysis; assay type: functional, cell-based; settings: time 4-24 hrs
[21] = system: MCF7; assay: Stabilization of RECQL5-RAD51 complex in RECQL5 knock out human MCF7 cells expressing wild type RECQL5-FLAG assessed as increase in RAD51-RECQL5-FLAG pull down at 20 uM measured after 8 hrs by coimmunoprecipitation assay; assay type: cell-based
[22] = system: T47D; assay: Stabilization of RECQL5-RAD51 complex in RECQL5 knock out human T47D cells expressing wild type RECQL5-FLAG assessed as increase in RAD51-RECQL5-FLAG pull down at 20 uM measured after 8 hrs by coimmunoprecipitation assay; assay type: cell-based
[23] = system: MCF7; assay: Cytotoxicity against RECQL5 knock out human MCF7 cells expressing […] assessed as reduction in colony formation at 10 uM measured after 8 to 10 days by clonogenic survival assay; assay type: functional, cell-based; settings: time 8-10 day
[24] = molecular target: T1, DNA repair protein RAD51 homolog 1 (Homo sapiens) (UniProt Q06609); assay: Stabilization of RAD51 foci in human cisplatin-resistant MCF7 cells assessed as increase in RAD51 positive cells at 20 uM pretreated with cisplatin for 8 hrs followed by compound addition and measured after 24 hrs by immunofluorescence microscopic analysis; assay type: cell-based
T1 sequence (whole entry): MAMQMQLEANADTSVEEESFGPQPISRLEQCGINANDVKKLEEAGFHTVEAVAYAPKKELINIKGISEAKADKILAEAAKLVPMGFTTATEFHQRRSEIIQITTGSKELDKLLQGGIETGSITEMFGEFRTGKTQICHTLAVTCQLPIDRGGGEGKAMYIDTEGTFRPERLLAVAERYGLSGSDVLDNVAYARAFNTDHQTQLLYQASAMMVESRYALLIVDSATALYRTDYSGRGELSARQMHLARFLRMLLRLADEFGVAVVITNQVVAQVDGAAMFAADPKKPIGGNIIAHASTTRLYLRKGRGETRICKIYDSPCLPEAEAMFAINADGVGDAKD

[25] = system: MCF7; assay: Induction of mitotic catastrophe phenotype in human cisplatin-resistant MCF7 cells assessed as micronucleus formation at 20 uM pretreated with cisplatin for 8 hrs followed by compound addition and measured after 24 hrs by immunofluorescence microscopic analysis; assay type: functional, cell-based
[26] = system: MCF7; assay: Induction of mitotic catastrophe phenotype in human cisplatin-resistant MCF7 cells assessed as fused nucleus at 20 uM pretreated with cisplatin for 8 hrs followed by compound addition and measured after 24 hrs by immunofluorescence microscopic analysis; assay type: functional, cell-based

O=C(Nc1cc(C(F)(F)F)cc(C(F)(F)F)c1)N[C@@H](c1ccccc1)c1nnc(SCc2ccccc2)o1
inhibition [1]: inactive | IC50 [2]: 4.8 µM | IC20 [3]: 8.2 µM | inhibition [4]: Active | inhibition [5]: Active | Activity [6]: Tde | selectivity ratio [7]: 2.7 | IC50 [8]: 19.6 µM | concentration at 4 h [9]: 14.8 µM | Activity [10]: Non-Toxic | Activity [11]: Dose-Dependent Effect | Activity [12]: inactive | Activity [13]: Dose-Dependent Effect | Activity [14]: Active | Activity [15]: Active | Activity [16]: inactive | Activity [17]: inactive | Activity [18]: Tde | Activity [19]: inactive | Activity [20]: inactive | Activity [21]: Active | Activity [22]: Active | Activity [23]: inactive | Activity [24]: Active | Activity [25]: Active | Activity [26]: Active
